# In PMC8164609 (Environmental Science and Pollution Research International, 2021):
# Like-named read-outs stand apart in the source and are kept apart here.
# Legend:
# [1] = test system: S. cerevisiae BMA64/luc; details: values higher than 2 are considered toxic
# Description: Yeast bioluminescent assay was performed as previously described (Omoruyi and Pohjanvirta [2018]). Two recombinant yeasts, Saccharomyces cerevisiae BMAEREluc/ERα and Saccharomyces cerevisiae BMA64/luc, were kindly provided by Dr. Johanna Rajasärkkä, Department of Food and Environmental Sciences, Faculty of Agriculture and Forestry, University of Helsinki. In the BMAEREluc/ERα, human ERα is expressed. After estrogen-like chemicals bind to ERα, the dimerized receptor binds to a specific DNA sequence called estrogen response element (ERE), in the promotor region of the luc reporter gene, inducing its expression. In BMA64/luc, the luciferase is expressed constitutively, and this strain can be used for the evaluation of cytotoxicity of test compounds.
# Both strains were revived from glycerol stock solution on agar and broth forms of synthetic complete medium supplemented with the required amino acids. After the absence of contamination was confirmed by observing single colonies’ morphology on agar plate, approximately 10 μL of cultured yeasts in broth was transferred to 4 mL of synthetic defined (SD) medium supplemented with the required amino acids. The culture was incubated at 30°C on a shaker incubator (200 rpm). After 24-h incubation, the culture was diluted with SD broth to reach the optimal density (OD600) of 0.4 CFU/mL. Subsequently, the culture was incubated in the same incubation condition until the OD600 reached 0.6–0.7 CFU/mL.
# Next, 90 μL of cultured yeasts containing 1:20 luciferin solution (0.042 g luciferin dissolved in 9.75 mL of 0.2 M trisodium citrate, and 5.525 mL of 0.2 M citrate, pH 5) was pipetted into every well of a white 96-well flat-bottom plate, and 10 μL of test compounds in a defined concentration range (diluted in 5% EtOH) were added. The plate was incubated at 30°C for approximately 2.5 h, and was then shaken briefly. The luminescence measurement was performed with Luminoskan Ascent microplate luminometer (Thermo Labsystems) using the recommended settings as follows: 1000 ms integration time, single measurement mode, shaking at 60 rpm for 5 s prior to measurement.
# Each concentration of test compounds and controls in the assay was tested in triplicate, and the experiment was performed twice.
# * The Correction Factor is the luminescence of the strain BMA64/luc with blank solvent divided by the luminescence of the control strain with the sample. Values higher than 2 are considered toxic (Leskinen et al. 2005).
# * The Correction Factor is the luminescence of the strain BMA64/luc with blank solvent divided by the luminescence of the control strain with the sample. Values higher than 2 are considered toxic (Leskinen et al. 2005). […] Each experiment was performed in triplicate.
# [2] = Estimated human serum concentration from dietary exposure; details: 7.3 mg/kg body weight/day as bolus, 2% absorbed, even distribution, maximum reduced by 50%
# Description: Tartrazine has been classified as a xenoestrogen that can bind to ERα in the MCF-7 cell line (Axon et al. [2012]). […] This raises the question whether tartrazine could create any estrogenic effect in humans at its prevailing serum concentrations. Based on the data published by EFSA, the 95th or 97.5th percentile exposure levels for human is 7.3 mg/kg body weight/day (EFSA [2009]).
# [3] = test system: human lymphocytes; details: MTT, cited from earlier work
# [4] = test system: MCF-7 cells; experiment: LDH cytotoxicity test; details: 24 h, up to 10^−4 M
# Description: Cytotoxicity was assessed by lactate dehydrogenase (LDH) release. For LDH measurement, Pierce LDH Cytotoxicity Assay Kit (Thermo Scientific, Rockford, USA) was used. MCF-7 cells were seeded at 2.8×10^5 in a transparent 96-well plate, and corner cells of the plate were filled with PBS to prevent the edge effect. SF medium containing DMEM without phenol red, 1% charcoal-stripped FBS, and 4 mM L-glutamine were used for this assay. Plates were incubated for 24 h, and then the cells were treated with test compounds at concentrations ranging from 10^−14 to 10^−4 M or vehicle for another 24 h. On day 3, culture supernatant was collected in a separate 96-well plate, and the assay was continued according to the manufacturer’s instructions. Final absorbance was measured with the microplate reader at 490 and 680 nm. […] Vehicle control was 0.1% EtOH or DMSO. All the exposures were in triplicate, and the experiment was carried out twice.
# [5] = test system: estrogen signaling cascade; set-up: method as in Datta and Lundin-Schiller [2008]; Axon et al. [2012]; details: ref Datta and Lundin-Schiller [2008]; Axon et al. [2012]; cited from earlier work
structure (smiles),measurement,setting,value
O=C([O-])C1=NN(c2ccc(S(=O)(=O)[O-])cc2)C(=O)C1N=Nc1ccc(S(=O)(=O)[O-])cc1.[Na+].[Na+].[Na+] (centres unmarked) [tartrazine],Correction Factor,"[1]; 5% DMSO, 10^−4 M",3.05±0.70
same,Correction Factor,"[1]; 5% DMSO, 10^−6 M",2.77±0.44
same,Correction Factor,"[1]; 5% DMSO, 10^−8 M",2.05±0.32
same,Correction Factor,"[1]; 5% DMSO, 10^−10 M",2.60±0.54
same,Correction Factor,"[1]; 5% DMSO, 10^−12 M",3.09±0.57
same,Correction Factor,"[1]; 5% DMSO, 10^−14 M",3.43±0.66
same,Correction Factor,"[1]; 5% ethanol, 10^−4 M",0.99±0.08
same,Correction Factor,"[1]; 5% ethanol, 10^−6 M",0.94±0.12
same,Correction Factor,"[1]; 5% ethanol, 10^−8 M",0.95±0.09
same,Correction Factor,"[1]; 5% ethanol, 10^−10 M",1.36±0.30
same,Correction Factor,"[1]; 5% ethanol, 10^−12 M",1.10±0.26
same,Correction Factor,"[1]; 5% ethanol, 10^−14 M",1.14±0.23
same,estimated serum concentration,[2],137 nM
same,cytotoxicity to human lymphocytes,"[3]; 0.25–64 mM, ref Soares et al. [2015]",not cytotoxic
same,cytotoxicity to human lymphocytes,"[3]; 4 and 8 mM, ref Mpountoukas et al. [2010]",cytotoxic
same,maximum level of cytotoxicity (LDH release),[4],less than 2.5%
same,concentration range of estrogenic effect in vitro,[5],1 to 10000 pM
